Results as given in patent publication US10064873B2, “Compounds and compositions for treating HIV with derivatives of Betulin” (GlaxoSmithKline LLC, priority 2011, dated 2018).

system: HIV NL4-3 wt; assay: MT4 antiviral assay, NL4-3 strain wild type; type: cell-based, HIV-1; settings: Human immunodeficiency virus 1, NL43, MT4, read-out: EC50 NL4-3 wt (nM)

`CC(C)C1=C2[C@H]3CC[C@@H]4[C@@]5(C)CC[C@H](OC(=O)CC(C)(C)C(=O)O)C(C)(C)[C@@H]5CC[C@@]4(C)[C@]3(C)CC[C@@]2([C@H](CN(CCN(C)C)Cc2ccc(Cl)cc2)OC(=O)CC(C)(C)C(=O)O)CC1=O` [Example 2, 4-((R)-1-((3aR,5aR,5bR,7aR,9S,11aR,11bR,13aS)-9-((3-Carboxy-3-methylbutanoyl)oxy)-1-isopropyl-5a,5b,8,8,11a-pentamethyl-2-oxo-3,3a,4,5,5a,5b,6,7,7a,8,9,10,11,11a,11b,12,13,13a-octadecahydro-2H-cyclopenta[a]chrysen-3a-yl)-2-((4-chlorobenzyl)(2-(dimethylamino)ethyl)amino)ethoxy)-2,2-dimethyl-4-oxobutanoic acid] was tested. Which EC50 did it give?
The EC50 was 5.2 nM.

How did the EC50 turn out when `CC(C)C1=C2[C@H]3CC[C@@H]4[C@@]5(C)CC[C@H](OC(=O)CC(C)(C)C(=O)O)C(C)(C)[C@@H]5CC[C@@]4(C)[C@]3(C)CC[C@@]2([C@@H](CN(CCN(C)C)Cc2ccc(Cl)cc2)OC(=O)CC(C)(C)C(=O)O)CC1=O` [Example 4, 4-((S)-1-((3aR,5aR,5bR,7aR,9S,11aR,11bR,13aS)-9-((3-Carboxy-3-methylbutanoyl)oxy)-1-isopropyl-5a,5b,8,8,11a-pentamethyl-2-oxo-3,3a,4,5,5a,5b,6,7,7a,8,9,10,11,11a,11b,12,13,13a-octadecahydro-2H-cyclopenta[a]chrysen-3a-yl)-2-((4-chlorobenzyl)(2-(dimethylamino)ethyl)amino)ethoxy)-2,2-dimethyl-4-oxobutanoic acid] was run?
Its EC50 is 10.1 nM.

Which EC50 does the source give for `CC(C)C1=C2[C@H]3CC[C@@H]4[C@@]5(C)CC[C@H](OC(=O)CC(C)(C)C(=O)O)C(C)(C)[C@@H]5CC[C@@]4(C)[C@]3(C)CC[C@@]2(CCNCc2ccccc2)CC1=O` [Example 6, 4-(((3aR,5aR,5bR,7aR,9S,11aR,11bR,13aS)-3a-(2-(Benzylamino)ethyl)-1-isopropyl-5a,5b,8,8,11a-pentamethyl-2-oxo-3,3a,4,5,5a,5b,6,7,7a,8,9,10,11,11a,11b,12,13,13a-octadecahydro-2H-cyclopenta[a]chrysen-9-yl)oxy)-2,2-dimethyl-4-oxobutanoic acid] here?
The EC50 was 0.5 nM.

For `CC(C)C1=C2[C@H]3CC[C@@H]4[C@@]5(C)CC[C@H](OC(=O)CC(C)(C)C(=O)O)C(C)(C)[C@@H]5CC[C@@]4(C)[C@]3(C)CC[C@@]2(CCNCc2cccc(Cl)c2)CC1=O` [Example 7, 4-(((3aR,5aR,5bR,7aR,9S,11aR,11bR,13aS)-3a-(2-((3-Chlorobenzyl)amino)ethyl)-1-isopropyl-5a,5b,8,8,11a-pentamethyl-2-oxo-3,3a,4,5,5a,5b,6,7,7a,8,9,10,11,11a,11b,12,13,13a-octadecahydro-2H-cyclopenta[a]chrysen-9-yl)oxy)-2,2-dimethyl-4-oxobutanoic acid], which EC50 is on record?
The EC50 was 6.1 nM.

`CC(C)C1=C2[C@H]3CC[C@@H]4[C@@]5(C)CC[C@H](OC(=O)CC(C)(C)C(=O)O)C(C)(C)[C@@H]5CC[C@@]4(C)[C@]3(C)CC[C@@]2(CCN(C)Cc2ccc(Cl)cc2)CC1=O` [Example 12, 4-(((3aR,5aR,5bR,7aR,9S,11aR,11bR,13aS)-3a-(2-((4-Chlorobenzyl)(methyl)amino)ethyl)-1-isopropyl-5a,5b,8,8,11a-pentamethyl-2-oxo-3,3a,4,5,5a,5b,6,7,7a,8,9,10,11,11a,11b,12,13,13a-octadecahydro-2H-cyclopenta[a]chrysen-9-yl)oxy)-2,2-dimethyl-4-oxobutanoic acid] was tested. Which EC50 did it give?
Its EC50 is 4.5 nM.

same assay, conditions: Human immunodeficiency virus 1, NL43; MT4 cells; read-out: EC50 NL4-3 wt

Which EC50 does the source give for `CC(C)C1=C2[C@H]3CC[C@@H]4[C@@]5(C)CC[C@H](OC(=O)CC(C)(C)C(=O)O)C(C)(C)[C@@H]5CC[C@@]4(C)[C@]3(C)CC[C@@]2([C@@H](O)CN2CCN(C)CC2)CC1` (racemic) [Example 65, 4-(((3aS,5aR,5bR,7aR,9S,11aR,11bR,13aS)-3a-((R)-1-hydroxy-2-(4-methylpiperazin-1-yl)ethyl)-1-isopropyl-5a,5b,8,8,11a-pentamethyl-3,3a,4,5,5a,5b,6,7,7a,8,9,10,11,11a,11b,12,13,13a-octadecahydro-2H-cyclopenta[a]chrysen-9-yl)oxy)-2,2-dimethyl-4-oxobutanoic acid] here?
Its EC50 is 83.8 nM.

How did the EC50 turn out when `CC(=O)N(Cc1cccc(Cl)c1)C[C@H](O)[C@@]12CC[C@]3(C)[C@H](CC[C@@H]4[C@@]5(C)CC[C@H](OC(=O)CC(C)(C)C(=O)O)C(C)(C)[C@@H]5CC[C@]43C)C1=C(C(C)C)C(=O)C2` [Compound 46] was run?
Its EC50 is 11.1 nM.

With `CC(C)C1=C2[C@H]3CC[C@@H]4[C@@]5(C)CC[C@H](OC(=O)CC(C)(C)C(=O)O)C(C)(C)[C@@H]5CC[C@@]4(C)[C@]3(C)CC[C@@]2([C@H](O)CN(CCN(C)C)Cc2ccccc2Cl)CC1=O` [Compound 51] as the compound, how does the EC50 read?
Its EC50 is 3.5 nM.

Which EC50 does the source give for `CC(C)C1=C2[C@H]3CC[C@@H]4[C@@]5(C)CC[C@H](OC(=O)CC(C)(C)C(=O)O)C(C)(C)[C@@H]5CC[C@@]4(C)[C@]3(C)CC[C@@]2([C@H](CNCc2ccc(Cl)cc2)OC(=O)CC(C)(C)C(=O)O)CC1=O` [Example 1, 4-((R)-1-((3aR,5aR,5bR,7aR,9S,11aR,11bR,13aS)-9-((3-carboxy-3-methylbutanoyl)oxy)-1-isopropyl-5a,5b,8,8,11a-pentamethyl-2-oxo-3,3a,4,5,5a,5b,6,7,7a,8,9,10,11,11a,11b,12,13,13a-octadecahydro-2H-cyclopenta[a]chrysen-3a-yl)-2-((4-chlorobenzyl)amino)ethoxy)-2,2-dimethyl-4-oxobutanoic acid] here?
Its EC50 is 41.1 nM.

Which EC50 does the source give for `CC(C)C1=C2[C@H]3CC[C@@H]4[C@@]5(C)CC[C@H](OC(=O)CC(C)(C)C(=O)O)C(C)(C)[C@@H]5CC[C@@]4(C)[C@]3(C)CC[C@@]2([C@@H](CNCc2ccc(Cl)cc2)OC(=O)CC(C)(C)C(=O)O)CC1=O` [Example 3, 4-[(1S)-1-[(1R,2R,5R,10S,13R,14R, 17S,19R)-17-[(3-carboxy-3,3-dimethylpropanoyl)oxy]-1,2,14,18,18-pentamethyl-7-oxo-8-(propan-2-yl)pentacyclo[11.8.0.0^ {2,10}.0^{5,9}.0^{14,19}]henicos-8-en-5-yl]-2-{[(4-chlorophenyl)methyl]amino}ethoxy]-2,2-dimethyl-4-oxobutanoic acid] here?
Its EC50 is 61.7 nM.

Which EC50 does the source give for `CC(C)C1=C2[C@H]3CC[C@@H]4[C@@]5(C)CC[C@H](OC(=O)CC(C)(C)C(=O)O)C(C)(C)[C@@H]5CC[C@@]4(C)[C@]3(C)CC[C@@]2(CCNCc2ccc(Cl)cc2)CC1=O` [Example 5, 4-(((3aR,5aR,5bR,7aR,9S,11aR,11bR,13aS)-3a-(2-((4-Chlorobenzyl)amino)ethyl)-1-isopropyl-5a,5b,8,8,11a-pentamethyl-2-oxo-3,3a,4,5,5a,5b,6,7,7a,8,9,10,11,11a,11b,12,13,13a-octadecahydro-2H-cyclopenta[a]chrysen-9-yl)oxy)-2,2-dimethyl-4-oxobutanoic acid] here?
The EC50 was 2.6 nM.

`CC(C)C1=C2[C@H]3CC[C@@H]4[C@@]5(C)CC[C@H](OC(=O)CC(C)(C)C(=O)O)C(C)(C)[C@@H]5CC[C@@]4(C)[C@]3(C)CC[C@@]2(CCNCc2cccc(Cl)c2F)CC1=O` [Example 8, 4-(((3aR,5aR,5bR,7aR,9S,11aR,11bR,13aS)-3a-(2-((3-Chloro-2-fluorobenzyl)amino)ethyl)-1-isopropyl-5a,5b,8,8,11a-pentamethyl-2-oxo-3,3a,4,5,5a,5b,6,7,7a,8,9,10,11,11a,11b,12,13,13a-octadecahydro-2H-cyclopenta[a]chrysen-9-yl)oxy)-2,2-dimethyl-4-oxobutanoic acid] was tested. Which EC50 did it give?
The EC50 was 5.9 nM.

Which EC50 does the source give for `CC(C)C1=C2[C@H]3CC[C@@H]4[C@@]5(C)CC[C@H](OC(=O)CC(C)(C)C(=O)O)C(C)(C)[C@@H]5CC[C@@]4(C)[C@]3(C)CC[C@@]2(CCNC2(c3ccc(Cl)cc3)CC2)CC1=O` [Example 9, 4-(((3aR,5aR,5bR,7aR,9S,11aR,11bR,13aS)-3a-(2-((1-(4-chlorophenyl)cyclopropyl)amino)ethyl)-1-isopropyl-5a,5b,8,8,11a-pentamethyl-2-oxo-3,3a,4,5,5a,5b,6,7,7a,8,9,10,11,11a,11b,12,13,13a-octadecahydro-2H-cyclopenta[a]chrysen-9-yl)oxy)-2,2-dimethyl-4-oxobutanoic acid] here?
Its EC50 is 12.3 nM.

How did the EC50 turn out when `CC(C)C1=C2[C@H]3CC[C@@H]4[C@@]5(C)CC[C@H](OC(=O)CC(C)(C)C(=O)O)C(C)(C)[C@@H]5CC[C@@]4(C)[C@]3(C)CC[C@@]2(CCN(CCN(C)C)C2(c3ccc(Cl)cc3)CC2)CC1=O` [Example 11, 4-(((3aR,5aR,5bR,7aR,9S,11aR,11bR,13aS)-3a-(2-((1-(4-Chlorophenyl)cyclopropyl)(2-(dimethylamino)ethyl)amino)ethyl)-1-isopropyl-5a,5b,8,8,11a-pentamethyl-2-oxo-3,3a,4,5,5a,5b,6,7,7a,8,9,10,11,11a,11b,12,13,13a-octadecahydro-2H-cyclopenta[a]chrysen-9-yl)oxy)-2,2-dimethyl-4-oxobutanoic acid] was run?
Its EC50 is 6.3 nM.

`CC(=O)N(CC[C@@]12CC[C@]3(C)[C@H](CC[C@@H]4[C@@]5(C)CC[C@H](OC(=O)CC(C)(C)C(=O)O)C(C)(C)[C@@H]5CC[C@]43C)C1=C(C(C)C)C(=O)C2)Cc1ccc(Cl)cc1` [Example 13, 4-(((3aR,5aR,5bR,7aR,9S,11aR,11bR,13aS)-3a-(2-(N-(4-Chlorobenzyl)acetamido)ethyl)-1-isopropyl-5a,5b,8,8,11a-pentamethyl-2-oxo-3,3a,4,5,5a,5b,6,7,7a,8,9,10,11,11a,11b,12,13,13a-octadecahydro-2H-cyclopenta[a]chrysen-9-yl)oxy)-2,2-dimethyl-4-oxobutanoic acid] was tested. Which EC50 did it give?
Its EC50 is 1.6 nM.

How did the EC50 turn out when `CC(C)C1=C2[C@H]3CC[C@@H]4[C@@]5(C)CC[C@H](OC(=O)CC(C)(C)C(=O)O)C(C)(C)[C@@H]5CC[C@@]4(C)[C@]3(C)CC[C@@]2([C@@H](O)CNCc2ccc(Cl)cc2)CC1=O` [Example 14, 4-(((3aR,5aR,5bR,7aR,9S,11aR,11bR,13aS)-3a-((R)-2-((4-Chlorobenzyl)amino)-1-hydroxyethyl)-1-isopropyl-5a,5b,8,8,11a-pentamethyl-2-oxo-3,3a,4,5,5a,5b,6,7,7a,8,9,10,11,11a,11b,12,13,13a-octadecahydro-2H-cyclopenta[a]chrysen-9-yl)oxy)-2,2-dimethyl-4-oxobutanoic acid] was run?
Its EC50 is 2.1 nM.
